Biological target: T1, PlaA (rPlaA, Strep-PlaA) (Legionella pneumophila, UniProt A0A378KFD4)
T1 construct: gene NCTC12000_02489
Conditions: 37 °C, 3 h; 25 ng protein in 50 µl; without ProA

T1 sequence (A0A378KFD4 20-309 limits assumed): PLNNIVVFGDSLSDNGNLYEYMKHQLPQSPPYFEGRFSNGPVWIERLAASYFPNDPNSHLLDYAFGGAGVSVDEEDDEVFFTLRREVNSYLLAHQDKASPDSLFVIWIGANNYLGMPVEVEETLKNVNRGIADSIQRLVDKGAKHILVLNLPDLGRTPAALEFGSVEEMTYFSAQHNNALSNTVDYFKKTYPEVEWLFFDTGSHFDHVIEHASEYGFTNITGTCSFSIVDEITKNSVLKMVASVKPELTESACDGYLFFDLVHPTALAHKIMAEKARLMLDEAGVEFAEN

SMILES | free fatty acid quantification
CCCCCCCCCCCCCCCC(=O)OC[C@@H](O)COP(=O)([O-])OCC[N+](C)(C)C [LPC, 1-monopalmitoyllyso-phosphatidylcholine] | rPlaA possessed lipase and LPLA activities, the latter especially towards LPG and LPC
CCCCCCCCCCCCCCCC(=O)OC[C@@H](O)COP(=O)(O)OCC(O)CO (some centres unmarked) [LPG, 1-mono-palmitoyllysophosphatidylglycerol] | rPlaA possessed lipase and LPLA activities, the latter especially towards LPG and LPC
